Measurements published in PMC9006931, “Altered Response Pattern following AZD5582 Treatment of SIV-Infected, ART-Suppressed Rhesus Macaque Infants” (Journal of Virology, 2022).

Columns and labels:
[1] = system: CD4+ T cells from SIV-infected, ART-suppressed infant RMs; assay: Ex vivo viral RNA induction assay, infant CD4+ T cells; type: cell-based, rhesus macaque; conditions: 100 nM, 9 days, in presence of DTG+FTC
Source text: Following confirmation of ncNF-κB pathway activation in infant naive and memory CD4^+ T cells ex vivo, we next sought to evaluate SIV reactivation following ex vivo AZD5582 stimulation in CD4^+ T cells isolated from SIV-infected, ART-suppressed infant RMs compared to CD4^+ T cells from SIV-infected, ART-suppressed adult RMs. To do so, we isolated CD4^+ T cells through negative selection from the peripheral blood of five SIV-infected, ART-suppressed adult RMs and five SIV-infected, ART-suppressed infant RMs. Cells were stimulated with either 100 nM AZD5582 or rhesus specific anti-CD2/CD3/CD28 beads (as a positive control) in the presence of ART (DTG+FTC) for 9 days. The supernatant was collected to quantify SIVgag RNA through qPCR as a measure of viral reactivation.
Viable cryopreserved PBMCs from SIV-infected, ART-suppressed infant and adult RMs collected 34 to 97 weeks post ART initiation were thawed, and CD4^+ T cells were enriched by negative selection using the NHP CD4^+ T cell isolation kit (Miltenyi Biotec). […] The viral RNA content of frozen cell-free culture supernatants collected on day 9 was determined using the SIVgag qPCR described above.

[2] = set-up: method as in PMID 31969707; conditions: adult RMs (n = 7), matched doses, plasma; cited from earlier work
[3] = system: NF-κB associated genes in CD4+ T cells; assay: RNA-Seq of peripheral CD4+ T cells pre- and post-AZD5582; type: in vivo, rhesus macaque
Method: Treatment with AZD5582 in SIV-infected, ART-suppressed adult RMs upregulates key genes associated with signaling through the ncNF-kB pathway, rather than the canonical NF-κB (cNF-kB) pathway in CD4^+ T cells ([17]). Here, we performed RNA-Seq in total CD4^+ T cells isolated from the peripheral blood of AZD5582-treated infant macaques at baseline (pre-dose 1) and the end of the treatment period (post-dose 10).
RNA-sequencing (RNA-seq) analysis was conducted at the Yerkes Nonhuman Primate Genomics Core Laboratory (http://www.yerkes.emory.edu/nhp_genomics_core/). RNA was purified from 50,000 peripheral blood-derived CD4^+ T cells purified by negative selection and lysed in 350 μL of RLT buffer at −80°C, using Qiagen Micro RNEasy columns, and RNA quality was assessed using an Agilent Bioanalyzer. Following this, 2 ng of total RNA was used as input for mRNA amplification using 5′ template switch PCR with the Clontech SMART-seq v4 Ultra Low Input RNA kit according to the manufacturer’s instructions. Amplified mRNA was fragmented and appended with dual-index bar codes using Illumina NexteraXT DNA library preparation kits. Libraries were validated by capillary electrophoresis on an Agilent 4200 TapeStation, pooled and sequenced on an Illumina HiSeq 3000 using 100-bp single reads at an average depth of 25 million reads. Alignment was performed using STAR version 2.7.3a ([36]) and transcripts were annotated using a composite reference of rhesus macaque (Mmul10 Ensembl release 100).
Statistical analyses were performed using GraphPad Prism Software (v.7 or v.8). P ≤ 0.05 was considered statistically significant. To compare differences in pre-ART viral loads between experimental groups in Fig. 2D and SIV DNA levels in Fig. 3C a two-sided Mann-Whitney test was used. To test the statistical significance observed in Ki67 expression on memory CD4^+ and CD8^+ T cells in Fig. 3B, BIRC3, NFKB2 gene expression in Fig. 6A and B, and SIV RNA expression in Fig. 6C and D. A Wilcoxon matched-pairs signed-rank test was used. For RNA-seq analysis in Fig. 5, RNA-seq data were mapped to the NCBI Mmul10 assembly of the Indian rhesus macaque genome, and alignment was performed with STAR (v.2.7.3a) using Ensemble release 100 annotations as a transcript annotation and splice junction reference. Transcript abundance estimates were calculated internal to the STAR aligner using the algorithm of htseq-count ([37]). DESeq2 ([38]) was used for normalization and differential expression analysis. Gene set enrichment analysis ([39]) (GSEA), performed with the GSEA desktop module (available at https://www.broadinstitute.org/gsea/) and the Molecular Signatures Database (MSigDB), was used to determine pathway/gene set enrichment. Heat maps, volcano plots, and principal-component analysis plots were generated with the R (v 3.6.0) package ggplot2.

[4] = infant RMs, CD4+ T cells, post-dose 10 vs pre-dose 1

CN[C@@H](C)C(=O)N[C@H](C(=O)N1CCC[C@H]1C(=O)N[C@H]1c2ccccc2C[C@H]1OCC#CC#CCO[C@@H]1Cc2ccccc2[C@@H]1NC(=O)[C@@H]1CCCN1C(=O)[C@@H](NC(=O)[C@H](C)NC)C1CCCCC1)C1CCCCC1 [AZD5582]
Animals whose CD4+ T cell cultures showed increased SIV RNA expression in supernatant [1]: 1/5 | AUC0-2h [2]: 512 ng·h/mL | Cmax [2]: 802 ng/mL | BIRC3 and BIRC5 expression in CD4+ T cells ([3]; AZD5582 treated infant and adult RMs): most significantly upregulated | Genes downregulated following AZD5582 treatment [3, 4]: 176 genes | Genes upregulated following AZD5582 treatment [3, 4]: 855 genes | Genes differentially expressed following AZD5582 treatment ([3]; infant RMs, CD4+ T cells, post-dose 10 vs pre-dose 1, FDR 5%, linear fold change 50%): 1,031 genes | Expression of RELB, NFKB2 and NFKBIA in CD4+ T cells ([3]; treated infant RMs): did not observe increased expression
